Common to all, as to assay type: cell-based
Assay [1] concerns SW480 cells. Put plainly: Growth inhibition (GI50) MTS assay. The conditions noted are these: Homo sapiens, 72 h. On the procedure: Growth inhibition curves were prepared using SW480 cells, prepared essentially according to Example 23. SW480 cells (3000 cells per well) were seeded on 96 well plates (eight replicates per treatment). 24 hours later and daily thereafter, cell culture media (including 10% FBS) was mixed with various compound concentrations or with 0.1% DMSO vehicle and then added to the wells. Sixteen wells of seeded control cells, defining incubation time zero (to =24 hour after cell seeding), were incubated with […] substrate in 100 μl of phenol-free D-MEM (Invitrogen) for 2 hours, as described in the CellTiter 96® AQueous Non-Radioactive Cell Proliferation Assay protocol (MTS, Promega). The A490 was recorded. The treatment samples were likewise measured after 72 hours. The following formula was used to determine the single well relative A490 sample values: ((Sample A490−Average A490t0)*100)/(Average A490t720.1% DMSO control−Average A490t0)
(§1) XLfit (idbs) was used to determine the IC50 and GI50 values in inhibition experiments. The data were fit to the following formulae:
GI50: Eadie-Hofstee Model: fit=(A+((B*x)/((C*(D+1))+x))) inv=(((y−A)*(C*(D+1)))/((A+B)−y)) res=(y−fit)

Assay [2] concerns canonical Wnt signaling. Briefly: IC50 in STF/REN HEK293 cells, 50% Wnt3a-CM. The note with it: Homo sapiens; STF/REN HEK293, 50% Wnt3a-CM, 24 h. On the procedure: IC50 values were calculated using STF/REN HEK293 cells prepared essentially according to Example 22. Briefly, HEK293 cells (80,000 cells per well) were seeded in 48-well plates coated with poly-L lysine. 24 hours after seeding, the cells were incubated for an additional 24 hours with various compound concentrations in 50% Wnt3a-CM. After compound exposure, the cells were lysed and the firefly luciferase and Renilla activities were measured on a 20/20n Luminometer (Turner BioSystems) as described in the Dual-Glo™ Luciferase Assay System Technical Manual (Promega).
as §1
IC50: Langmuir Binding Isotherm: fit=((A+(B*x))+(((C−B)*(1−exp((−1*D)*x)))/D)) res=(y−fit)

Assay [3] has as its system canonical Wnt signaling. Put plainly: ST-Luc (SuperTOPFlash) Luciferase assay in HEK293 cells, 30% Wnt3a-CM. The note with it: Homo sapiens, HEK293; 10 μM compound, 30% Wnt3a-CM, 24 h; relative to DMSO control. The procedure:
Inhibition of Wnt signaling by compound No. 1 was quantified in vitro using a Luciferase assay in HEK293 cells transiently transfected with SuperTOPFlash plasmid (ST-Luc) (Veeman M T et al., Curr. Biol. 13: 680-685, 2003) at concentrations from 0.1-10 μM. HEK293 cells were purchased from ATCC (American Type Culture Collection) and maintained according to suppliers recommendations.
Transfection was performed using 80000 HEK293 cells seeded in 48-well plates coated with poly-L lysine. After 24 hours, 0.25 μg total plasmid DNA (0.23 μg SuperTOPFlash+0.02 μg pRL-TK (Renilla)—Promega) and 0.75 μl FuGENE6 (Roche) was combined in a total volume in 25 μl Opti-MEM® (Invitrogen) as described by the manufacturer (Roche). The transfection mixture was added to the plated cells and media were changed after 24 hours.
The Luciferase assay was performed by incubating transfected cells for 24 hours with various concentrations of compound No. 1 in 30% Wnt3a-CM (Wnt3a containing conditioned medium from L Wnt3a cells was harvested as described by ATCC). All treated reporter cells were finally lysed and the firefly luciferase and Renilla activities were measured on a 20/20n Luminometer (Turner BioSystems) as described in the Dual-Glo™ Luciferase Assay System Technical Manual (Promega).
HEK293 cells were transfected, grown and assayed as described in Example 22. 24 hours after seeding, the cells were incubated for an additional 24 hours with 10 μM concentrations of compounds in 30% Wnt3a-CM.
The percent activities shown in Table 3 are calculated relative to DMSO as a control. Some values shown are averages of multiple measurements. Compound XAV939 (Novartis; Huang et al., Nature (2009), 461, pp. 614-20) which is used as a positive control, has an activity of 7%.

The test system of assay [4] is SW480 colon carcinoma cells. Briefly: MTS cell proliferation assay, Table 5. The conditions noted are these: Homo sapiens; SW480, 10 μM, 72 h; relative to DMSO control; read-out: Cell proliferation (%) for test compounds. On the procedure: For the experiment giving the results shown in Table 5, cells (3000 per well) were seeded on 96 well plates (eight replicates per treatment). After 24 hours, and daily thereafter, cell culture medium (including 10% FBS) was mixed with 10 μM compounds or with 0.1% DMSO vehicle and then added to the wells. Sixteen wells of seeded control cells, defining incubation time zero (t0=24 hour after cell seeding), were incubated with 20 μl substrate in 100 μl phenol free D-MEM (Invitrogen) for 2 hours, as described in the CellTiter 96® AQueous Non-Radioactive Cell Proliferation Assay protocol (Promega). The A490 was recorded. The treatment samples were likewise measured after 72 hours.
The quantity of reduced MTS product (as measured by the absorbance at 490 nm) is directly proportional to the number of living cells in the culture and thus allows a direct comparison of cell proliferation in each case. DMSO was used as a control. The following formula was used to determine single well relative A490 sample values: ((Sample A490−Average A490t0)*100)/(Average A490t720.1% DMSO control−Average A490t0)
The proliferation of SW480 cells (in percent) is the A492 value relative to that of the DMSO control.

The record followed here is patent US8883827B2, “Azole derivatives as WTN pathway inhibitors” (Oslo University Hospital HF, priority 2009, dated 2014).

In assay [1], `Cc1ccc(-c2noc(CSc3nnc(-c4ccncc4)n3-c3cccc(Cl)c3C)n2)cc1` [Compound 10] displayed a GI50 of 13.5 µM. In addition, the midpoint of inhibition in assay [2], the IC50, lay at 3.3 µM. Besides, the activity at 10 µM in assay [3] is 10.1%.

In assay [1], `Cc1ccc(-c2noc(CSc3nnc(-c4ccncc4)n3-c3cccc(C)c3C)n2)cc1` [Compound 44] registered a GI50 of 22 µM. The same molecule showed an IC50 in assay [2] of 0.57 µM. This molecule came in with an activity at 10 µM in assay [3] of 10.4%.

The molecule `COc1ccc(-n2c(NCc3nc(-c4ccc(C)cc4)no3)nnc2-c2ccncc2)cc1` [Compound 19] gave a GI50 in assay [1] above 25 µM. In assay [2], this molecule showed an IC50 of 8.8 µM. This molecule also returned an activity at 10 µM in assay [3] of 44.1%.

For `Cc1ccc(-c2noc(CSc3nnc(-c4ccnc(O)c4)n3-c3ccccc3C)n2)cc1` [Compound 46], in assay [1], the GI50 was found to be 9 µM. Further, inhibition in assay [2] was half-maximal at 0.7 µM (IC50). This molecule registered an activity at 10 µM in assay [3] of 13.3%.

`COc1ccc(-n2c(SCc3nc(-c4ccc(Cl)cc4)no3)nnc2-c2ccncc2)cc1` [Compound 5] registered a GI50 in assay [1] of 10 µM. Besides, the IC50 in assay [2] was determined as 0.95 µM. The molecule further yielded an activity at 10 µM in assay [3] of 10%.

For the molecule `Cc1ccc(-c2noc(CSc3nnc(-c4ccncc4)n3-c3ccccc3C)n2)cc1` [Compound 7], halving of growth in assay [1] (GI50) required 7.5 µM. In assay [2], this molecule showed an IC50 of 0.88 µM. The molecule further yielded an activity at 10 µM in assay [3] of 5.6%.

Take `Cc1ccc(-c2nnc(CSc3nnc(-c4ccncc4)n3-c3ccccc3C)o2)cc1` [Compound 48]: in assay [1], growth was halved (GI50) at 9 µM. For the same molecule, in assay [2], the IC50 was found to be 0.22 µM. Further, the activity at 10 µM in assay [3] amounted to 9.9%.

`Cc1ccc(-c2noc(CSc3nnc(-c4ccncc4)n3-c3ccccc3F)n2)cc1` [Compound 42] returned a concentration for 50% growth inhibition (GI50) in assay [1] of 8 µM. The molecule also showed an IC50 in assay [2] of 0.4 µM. The molecule further gave an activity at 10 µM in assay [3] of 14.6%.

Take `Cc1ccc(-c2nnc(CSc3nnc(-c4ccc(Cl)cc4Cl)n3-c3ccccc3Cl)o2)cc1` [compound 112, 3-((5-p-tolyl-1,3,4-oxadiazol-2-yl)methylthio)-5-(2,4-dichlorophenyl)-4-(2-chlorophenyl)-4H-1,2,4-triazole]: the figures for the activity at 10 µM in assay [4] and in assay [3] were 39% and 0.3%, respectively. Moreover, the IC50 in assay [2] was 0.688 µM.

On to `COc1ccc(-n2c(SCC(C)(C)c3nc(-c4ccc(C)cc4)no3)nnc2-c2ccncc2)cc1` [Compound 18], for which the GI50 in assay [1] was above 25 µM. In addition, the IC50 in assay [2] stood at 5.9 µM. This molecule also returned an activity at 10 µM in assay [3] of 32.3%.

For the molecule `COc1ccc(-n2c(SCc3nnc(-c4ccccc4)o3)nnc2-c2ccncc2)cc1` [Compound 11], in assay [1], the GI50 was above 25 µM. In addition, in assay [2], the IC50 came out at 1.5 µM. The molecule also yielded an activity at 10 µM in assay [3] of 9.3%.

As to `Clc1ccc(-c2nnc(CSc3nnc(-c4ccncc4)n3-c3ccccc3Cl)o2)cc1` [compound 113, 4-(5-((5-(4-chlorophenyl)-1,3,4-oxadiazol-2-yl)methylthio)-4-(2-chlorophenyl)-4H-1,2,4-triazol-3-yl)pyridine], the activity at 10 µM turned out to be 56% in assay [4] and 4.9% in assay [3]. In assay [2], this molecule displayed an IC50 of 0.059 µM.

The molecule `Cc1ccccc1-n1c(SCc2nc(-c3ccc(Cl)cc3)no2)nnc1-c1ccncc1` [Compound 41] displayed a GI50 in assay [1] below 5 µM. Further, in assay [2], the concentration for half-maximal inhibition (IC50) stood at 0.47 µM. Further, the activity at 10 µM in assay [3] was 9.4%.

`COc1ccc(-n2c(SCc3nc(-c4ccc(C)cc4)no3)nnc2-c2ccccc2OC)cc1` [Compound 8] came in with a GI50 in assay [1] of 10.5 µM. This molecule yielded an IC50 in assay [2] of 2.1 µM. For the same molecule, the activity at 10 µM in assay [3] turned out to be 28.5%.

On to `Cc1ccc(-c2nnc(CSc3nnc(-c4ccc(Cl)nc4)n3-c3ccccc3Cl)o2)cc1` [Compound 108], for which the activity at 10 µM stood at 42% in assay [4] and 0.8% in assay [3]. Further, the 50% inhibitory concentration (IC50) in assay [2] amounted to 0.218 µM.

Regarding `Cc1ccc(-c2nnc(CSc3nnc(-c4ccncc4)n3-c3ccccc3Cl)o2)cn1` [compound 68], the activity at 10 µM in assay [4] turned out to be 60%; in assay [3], 17%. Further, the IC50 in assay [2] came to 0.381 µM.
